Source: US8455448B2, “Myostatin isoform” (Myostin Therapeutics Pty Ltd, priority 2004, dated 2013)
“Also recorded” adds a separate entry of the source.

Tested on: murine C2C12 myoblasts
Assay: Proliferation assay of C2C12 murine myoblasts (methylene blue, absorbance 655 nm)
Format: cell-based
Experimental: (§1) Myoblasts were seeded in 96-well tissue culture plates (Nunc, Roskilde, Denmark) at a cell density of 1000 cells per well in 200 μl of Dulbecco's modified Eagle's medium (DMEM, Invitrogen, California) supplemented with foetal bovine serum (FBS, 10% v/v, Invitrogen), penicillin (1×10^5 IU/l, Sigma, St Louis, Mo., USA) and streptomycin (100 mg/l, Sigma) buffered with NaHCO3 containing phenol red (7.22 nmol/l) as a pH indicator, and incubated overnight at 37° C. with 5% CO2. Medium was replaced with DMEM 10% FBS test medium containing 0, 0.001, 0.003, 0.01, 0.03, 0.1, 0.3, 1, 3 or 10 μg/ml oMSV65 in a semi-random arrangement of eight replicates (n=8) for each test medium. Plates were incubated at 37° C. with 5% CO2 for 72 hours, and then the medium was removed. The wells were washed with 200 μl of phosphate buffered saline (PBS, Oxoid, UK) and fixed with 100 μl of 10% formaldehyde, 0.9% NaCl solution for at least one hour. The fixative was then removed and 100 μl of 1% methylene blue stain in 0.01 M borate buffer (pH 8.5) was added to each well and incubated for 30 min at room temperature. Excess stain was removed by four sequential washes in borate buffer. Methylene blue was eluted from the cells by the addition of 100 μl 1:1 (v/v) ethanol/0.1 HCl. The plates were gently shaken and the absorbance was measured at 655 nm using a microplate photometer (FIGS. 3a and 3b).
as §1, with “0,” for “0, 0.001, 0.003,”, “0.01,” for “0.01, 0.03,”, “1” for “0.3, 1, 3”, “oMSV47” for “oMSV65”, “60” for “72”, “(FIG. 9).” for “(FIGS. 3a and 3b).”
Myoblasts were seeded in 96-well tissue culture plates (Nunc, Roskilde, Denmark) at a cell density of 1000 cells per well in […] of Dulbecco's modified Eagle's medium (DMEM, Invitrogen, California) supplemented with foetal bovine serum (FBS, 10% v/v, Invitrogen), penicillin (1×10^5 IU/l, Sigma, St Louis, Mo., USA) and streptomycin (100 mg/l, Sigma) buffered with NaHCO3 containing phenol red (7.22 nmol/l) as a pH indicator, and incubated overnight at 37° C. with 5% CO2. Medium was replaced with DMEM 2.5% FBS test medium containing 0, 0.01, 0.1, 1, 5 or 10 μg/ml of the respective peptides in a semi-random arrangement of eight replicates (n=8) for each test medium. Plates were incubated at 37° C. with 5% CO2 for 80 hours, and then the medium was removed. The wells were washed with 200 μl of phosphate buffered saline (PBS, Oxoid, UK) and fixed with 100 μl of 10% formaldehyde, 0.9% NaCl solution for at least one hour. The fixative was then removed and 100 μl of 1% methylene blue stain in 0.01 M borate buffer (pH 8.5) was added to each well and incubated for 30 min at room temperature. Excess stain was removed by four sequential washes in borate buffer. Methylene blue was eluted from the cells by the addition of 100 μl 1:1 (v/v) ethanol/0.1 HCl. […]

[1] = roMSV47 1-10,000 ng/ml, 60 h, FIG. 10

Molecule | proliferation of murine C2C12 myoblasts (0-10 μg/ml, DMEM 2.5% FBS, 80 h, FIG. 12A and FIG. 17) | C2C12 myoblast proliferation [1] | concentration of maximum proliferation enhancing activity [1] | increase in myoblast proliferation (roMSV47, 60 h, FIG. 10) | myoblast cell growth (proliferation) (roMSV65 0 to 10 μg/ml, 72 h, FIG. 3A) | proliferation of murine C2C12 myoblasts (roMSV65 without myostatin, 48 h, FIG. 9)
roMSV47: 47 amino acid C-terminal mature ovine MSV fragment (SEQ ID NO: 50), recombinant from E. coli (IIFLEVYIQFCSILGEAVFKRQSKSIHFCQNFKIIACLCNTAAFRMK; Ovis aries) | stimulate myoblast proliferation; also recorded: stimulate C2C12 cell growth in a dose dependent manner | stimulates murine C2C12 myoblast proliferation | 0.1 to 0.5 µg/mL | more than 2 fold |  | 
roMSV65: 65 amino acid C-terminal peptide of ovine MSV (SEQ ID NO: 49) expressed as recombinant protein in E. coli (protein, Ovis aries) VHFYTPPYGQWIFHKERKIIFLEVYIQFCSILGEAVFKRQSKSIHFCQNFKIIACLCNTAAFRMK |  |  |  |  | stimulate myoblast cell growth in a dose dependent manner | stimulated proliferation of murine myoblasts
